Data reported in US20130189764A1, “SELECTIVE GROWTH MEDIA” (Oxide Limited, priority 2000, published 2013).
≈ marks a conversion by molar mass, not a printed value.

Columns and labels:
[1] = test system: S. indiana OCC 2412 and S. worthington OCC 634; assay: Bioscreen growth in Lab-Lemco broth (Example 11), Salmonella strains; format: cell-based; conditions: 64 μg/ml, Lab-Lemco broth pH 5.7, 37° C.
Description: Thus, Ala-AEP was dissolved in deionised water (7.0 mg/ml), filter sterilised, and an amount of the solution added to autoclaved Lab-Lemco broth (20 g/l; pH 5.7) to give a concentration of 70 μg/ml. Volumes (300 μl) of this solution were then pipetted into the wells of Bioscreen microtitre plates and 30 μl quantities of 1 in 10,000 dilutions of overnight cultures added (reducing the final alaphosphin concentration to 64 μg/m). Plates were then covered, incubated at 37° C., and the opacity of the organism suspensions measured using a Bioscreen instrument. Growth of the Salmonella strains was unaffected whereas the E. coli strains were all inhibited.
Typical results are shown in FIG. 16, which is a graph of Optical Density against time (hours). Growth of S. indiana OCC 2412 and S. worthington OCC 634 is denoted by crosses and circles respectively.

[2] = test system: Enterococcus faecalis OCC 640; assay: growth on nutrient agar streak plates, pure culture (Example 3); format: cell-based; conditions: E. faecalis OCC 640, nutrient agar, 0-10 mM tested
Source text: Example 1 was repeated using Enterococcus faecalis OCC 640 as the test organism.

[3] = test system: Enterococcus faecalis 640; assay: MIC in DMSal medium (Example 17); format: cell-based; conditions: Enterococcus faecalis, 640
[4] = test system: Salmonella typhimurium 722; assay: MIC in DMSal medium (Example 17); format: cell-based; conditions: Salmonella enterica, TYPHIMURIUM
Description: (§1) Isoleucyl-AEP and sarcosyl-alanyl-AEP were compared to ala-AEP (all in DMSal medium) for the ability to selectively recover two clinically important pathogenic bacteria: Salmonella and Staphylococcus aureus.
For selective growth of Salmonella inhibition of Citrobacter, Enterobacter sakazakii and E. coli is important. […] Sarcosyl-alanyl-AEP used at a concentration of 1.0 μg/ml is sufficient to inhibit the growth of all three undesired bacteria while having no effect on growth of Salmonella typhimurium. […] Alternatively, a concentration of 2.0 μg/ml of isoleucyl-AEP is required to inhibit the growth of Citrobacter, Enterobacter sakazakii and E. coli and this concentration has no effect on the Salmonella typhimurium strain tested.

K. pneumoniae CMCC 3077 = assay: growth on nutrient agar, mixed culture with B. subtilis (Example 8); format: cell-based, Klebsiella pneumoniae; conditions: K. pneumoniae in mixed culture with B. subtilis, nutrient agar
Source text: Example 6 was repeated, this time using a mixed culture of B. subtilis OCC 214 and K. pneumoniae CMCC 3077, in the presence of AEP or alaphosphin. The empty columns show the growth of B. subtilis, the shaded columns denote growth of K. pneumoniae.

E. faecalis OCC 604 = assay: growth on nutrient agar, mixed culture with S. aureus (Example 7); format: cell-based, Enterococcus faecalis; conditions: E. faecalis in mixed culture with S. aureus
Source text: Example 6 was repeated, this time using a mixed culture of S. aureus OCC 102 and E. faecalis OCC 604, in the presence of AEP or alaphosphin. The empty columns represent growth of S. aureus, the shaded columns represent growth of E. faecalis. […] Thus alaphosphin could be used, when incorporated at an appropriate concentration in a medium, to inhibit growth of organisms such as Enterococci in samples whilst allowing Staphylococci to grow and be detected.

[5] = test system: Klebsiella pneumoniae 411; assay: MIC / growth in DMSal (Example 16); format: cell-based; conditions: Klebsiella pneumoniae 411, DMSal, 1.5 μg/ml
Description: (§2) The experiments were conducted as follows: nutrient agar medium was autoclaved and, on cooling (but prior to setting) filter-sterilised alaphosphin or AEP were incorporated at final concentrations of 1 mM, 2 mM, 5 mM and 10 mM, and the medium used to pour plates. Control plates were prepared using nutrient agar without alaphosphin or AEP. A single colony of the organism under test was inoculated in 10 ml of nutrient broth and incubated (without agitation) at 37° C. for 4 hours.
(§3) Trp-AEP was compared to alaphosphin (Ala-AEP) for selective growth of Salmonella strains on DMSal agar.

[6] = test system: Salmonella typhimurium 722; assay: MIC / growth in DMSal (Example 16); format: cell-based; conditions: Salmonella typhimurium 722, DMSal, 1.5 μg/ml
Description: as §2, §3

Serratia marcescens 217 = assay: MIC / growth in DMSal (Example 16); format: cell-based; conditions: Serratia marcescens 217, DMSal, 1.5 μg/ml
Description: as §2, §3

Citrobacter freundii 370 = assay: MIC / growth in DMSal (Example 16); format: cell-based; conditions: Citrobacter freundii 370, DMSal, 1.5 μg/ml
Description: as §2, §3

[7] = test system: Salmonella typhimurium OCC 1870; assay: growth on nutrient agar streak plates, pure culture (Example 2); format: cell-based; conditions: S. typhimurium OCC 1870, nutrient agar, 0-10 mM tested
Source text: Example 1 was repeated, using Salmonella typhimurium OCC 1870 as the test organism. The results are shown in FIG. 3, which uses the same key as FIG. 2.

[8] = test system: Enterobacter sakazakii 1888; assay: MIC in DMSal medium (Example 17); format: cell-based; conditions: Cronobacter sakazakii, 1888
S. aureus ss aureus 2355 = assay: MIC in DMSal medium (Example 17); format: cell-based; conditions: Staphylococcus aureus
Source text: as §1

[9] = test system: Enterococcus faecalis 581; assay: MIC in DMSal medium (Example 17); format: cell-based; conditions: Enterococcus faecalis, 581
Source text: as §1

S. aureus (MRSA) 934 = assay: MIC in DMSal medium (Example 17); format: cell-based; conditions: Staphylococcus aureus, MRSA
Source text: as §1

S. aureus 198 = assay: MIC in DMSal medium (Example 17); format: cell-based; conditions: Staphylococcus aureus, 198
Source text: as §1

SMILES: C[C@H](N)C(=O)N[C@@H](C)P(=O)(O)O [alaphosphin, L-alanyl-L-1-aminoethylphosphonic acid]
- growth (optical density) in presence of the agent [1]: unaffected
- concentration at which growth is completely inhibited [2]: ≥ 2 mM
- MIC [3]: 10 µg/mL (≈ 51 µM)
- MIC [4]: 2 µg/mL (≈ 10.2 µM)
- concentration at which growth is completely inhibited (K. pneumoniae CMCC 3077): ≥ 2 mM
- concentration causing complete inhibition (E. faecalis OCC 604): ≥ 2 mM
- growth with Ala-AEP (1.5 μg/ml) [5]: Growth
- growth with Ala-AEP (1.5 μg/ml) [6]: Growth
- growth with Ala-AEP (1.5 μg/ml) (Serratia marcescens 217): Growth
- growth with Ala-AEP (1.5 μg/ml) (Citrobacter freundii 370): Growth
- concentration at which growth is completely inhibited [7]: ≥ 5 mM
- MIC [8]: 0.075 µg/mL (≈ 0.382 µM)
- MIC (S. aureus ss aureus 2355): 10 µg/mL (≈ 51 µM)
- MIC [9]: 10 µg/mL (≈ 51 µM)
- MIC (S. aureus (MRSA) 934): 25 µg/mL (≈ 127 µM)
- MIC (S. aureus 198): 5 µg/mL (≈ 25.5 µM)
